Measured values from patent US10689702B2, “Biomarkers for diabetes” (The Chinese University of Hong Kong, priority 2012, dated 2020).

System: cancer in type 2 diabetic patients
Assay: Hazard ratios of drug use for cancer, 5-year prospective cohort (Hong Kong Diabetes Registry)
Format: in vivo, Chinese type 2 diabetic patients
Details: patients who did not use the drug 2.5 yr prior to enrolment
[1] = Model 1, adjusted for propensity scores
[2] = Model 2, adjusted for risk factors, use of other medications during follow-up and propensity score

Molecule | HR(95% CI) for cancer, users versus non user [1] | HR(95% CI) for cancer, users versus non user [2]
CN(C)C(=N)N=C(N)N [Metformin] | 0.38(0.25-0.56) | 0.39(0.25-0.61)
Insulin | 0.48(0.31-0.73) | 0.58(0.38-0.89)
O=C1CSC(=O)N1 [TZDs, Thiazolidinedione] | 0.12(0.03-0.50) | 0.18(0.04-0.72)
